Experiments:
[1] = test system: Muscarinic (non-selective); details: 10 μM, binding, mouse brain homogenate
Procedure: (§1) TM30089 was tested at a final concentration of 10 μM in either binding or functional assays on several 7TM receptors, and in enzymatic assays on selected enzymes including those involved in arachidonic acid metabolism. All assays were performed using recombinant human receptors and enzymes, and included the appropriate controls for assay validation. Enzymatic and binding assays, except for muscarinic binding, were performed by CEREP in vitro pharmacology profiling services. Full description of methods and references is available on the CEREP Web site. […] Functional assays were performed using recombinant human receptors and enzymes, and included the appropriate controls for C3a, C5a, ChemR23 receptors by determining the inhibitory potency of TM30089 in InsP assays essentially as described above. For stimulation of C3a, C5a, and ChemR23 receptors in InsP assays the following agonists were used: human recombinant C3a (C3a receptor), human recombinant C5a (C5a receptor), and the nonapeptide Chemerin (ChemR23).

[2] = target: Muscarinic (M2-selective) (Sus scrofa, UniProt P06199); details: 10 μM, binding, porcine heart membranes
Procedure: as §1

Phospholipase A2 = details: 10 μM, enzymatic
Procedure: as §1

AT1 = target: T1, AT1 (Homo sapiens, UniProt P30556); assay: Profiling panel, radioligand binding AT1; details: 10 μM
T1 sequence (P30556 1-359): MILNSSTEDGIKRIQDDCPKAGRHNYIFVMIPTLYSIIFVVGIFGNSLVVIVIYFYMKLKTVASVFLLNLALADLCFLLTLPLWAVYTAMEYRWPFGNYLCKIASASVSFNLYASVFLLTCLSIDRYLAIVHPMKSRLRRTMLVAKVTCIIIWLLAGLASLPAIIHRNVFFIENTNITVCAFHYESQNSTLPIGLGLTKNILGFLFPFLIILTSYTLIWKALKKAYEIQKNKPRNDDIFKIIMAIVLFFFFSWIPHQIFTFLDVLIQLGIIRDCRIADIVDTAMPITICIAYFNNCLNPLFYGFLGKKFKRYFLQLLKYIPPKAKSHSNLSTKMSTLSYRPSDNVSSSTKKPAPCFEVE
Procedure: (§2) All assays were performed using recombinant human receptors and enzymes, and included the appropriate controls for assay validation. Enzymatic and binding assays, except for muscarinic binding, were performed by CEREP in vitro pharmacology profiling services. […] For stimulation of C3a, C5a, and ChemR23 receptors in InsP assays the following agonists were used: human recombinant C3a (C3a receptor), human recombinant C5a (C5a receptor), and the nonapeptide Chemerin (ChemR23).

Glucocorticoid = target: T2, Glucocorticoid (Homo sapiens, UniProt P04150); assay: Profiling panel, radioligand binding Glucocorticoid; details: 10 μM
T2 sequence (P04150 1-777): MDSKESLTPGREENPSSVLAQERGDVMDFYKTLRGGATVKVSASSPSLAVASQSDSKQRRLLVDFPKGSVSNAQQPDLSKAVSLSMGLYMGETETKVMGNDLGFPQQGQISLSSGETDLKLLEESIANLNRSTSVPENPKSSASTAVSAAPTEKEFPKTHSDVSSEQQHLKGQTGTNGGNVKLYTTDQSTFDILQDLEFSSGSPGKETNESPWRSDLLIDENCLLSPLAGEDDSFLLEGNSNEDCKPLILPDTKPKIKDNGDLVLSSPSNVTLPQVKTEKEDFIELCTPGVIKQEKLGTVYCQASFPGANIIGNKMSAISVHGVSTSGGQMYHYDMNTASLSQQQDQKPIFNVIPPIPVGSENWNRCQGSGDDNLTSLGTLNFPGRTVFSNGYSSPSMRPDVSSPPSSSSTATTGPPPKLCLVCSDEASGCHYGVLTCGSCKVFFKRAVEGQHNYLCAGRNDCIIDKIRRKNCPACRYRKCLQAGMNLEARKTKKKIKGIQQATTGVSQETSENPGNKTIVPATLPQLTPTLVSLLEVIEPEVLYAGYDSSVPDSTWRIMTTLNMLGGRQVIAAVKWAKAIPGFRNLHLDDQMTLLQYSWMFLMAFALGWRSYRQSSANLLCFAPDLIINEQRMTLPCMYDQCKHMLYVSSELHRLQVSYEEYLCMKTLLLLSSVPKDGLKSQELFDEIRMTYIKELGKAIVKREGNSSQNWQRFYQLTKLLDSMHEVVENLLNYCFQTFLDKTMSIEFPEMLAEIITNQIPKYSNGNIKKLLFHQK
Procedure: as §2

C5a = target: T3, C5a (Homo sapiens, UniProt P21730); assay: Profiling panel, C5a receptor; details: 10 μM, assay type B (binding) per table
T3 sequence (P21730 1-350): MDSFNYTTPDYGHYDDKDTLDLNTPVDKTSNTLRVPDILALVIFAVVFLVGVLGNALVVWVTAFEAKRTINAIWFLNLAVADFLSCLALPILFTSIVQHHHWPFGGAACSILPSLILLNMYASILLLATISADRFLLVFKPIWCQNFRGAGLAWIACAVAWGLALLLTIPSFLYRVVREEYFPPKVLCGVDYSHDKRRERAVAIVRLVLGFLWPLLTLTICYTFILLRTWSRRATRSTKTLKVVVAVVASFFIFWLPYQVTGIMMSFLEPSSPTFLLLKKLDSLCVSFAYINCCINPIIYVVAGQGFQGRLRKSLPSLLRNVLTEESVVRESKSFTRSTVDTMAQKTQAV
Procedure: as §2

Muscarinic (M2-selective), sequence (P06199 whole entry): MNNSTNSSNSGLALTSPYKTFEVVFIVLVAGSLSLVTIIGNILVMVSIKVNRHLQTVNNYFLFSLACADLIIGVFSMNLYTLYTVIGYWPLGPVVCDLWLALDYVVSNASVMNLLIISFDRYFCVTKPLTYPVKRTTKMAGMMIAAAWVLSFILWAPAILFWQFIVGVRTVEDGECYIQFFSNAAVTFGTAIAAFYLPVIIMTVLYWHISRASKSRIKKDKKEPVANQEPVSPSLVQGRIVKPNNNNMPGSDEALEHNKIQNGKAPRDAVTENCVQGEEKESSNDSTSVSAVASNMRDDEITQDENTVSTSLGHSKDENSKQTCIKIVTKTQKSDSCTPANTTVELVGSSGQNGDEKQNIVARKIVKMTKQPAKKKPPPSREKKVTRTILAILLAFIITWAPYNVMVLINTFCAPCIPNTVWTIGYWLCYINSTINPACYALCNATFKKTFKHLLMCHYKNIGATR

CN(C1CCc2c(c3ccccc3n2CC(=O)O)C1)S(=O)(=O)c1ccc(F)cc1 (stereo not drawn) [TM30089]
% of control Muscarinic (non-selective) [1]: 106.7 ± 8.5% | % of control Muscarinic (M2-selective) [2]: 97.5 ± 1.9% | % of control Phospholipase A2 (Phospholipase A2): 101.5 ± 1.0% | % of control AT1 (AT1): 90.1 ± 2.8% | % of control Glucocorticoid (Glucocorticoid): 98.9 ± 11.3% | % of control C5a (C5a): 108.7 ± 6.3%

Reference: paper PMC1810525, “Antagonism of the prostaglandin D2 receptor CRTH2 attenuates asthma pathology in mouse eosinophilic airway inflammation” (Respiratory Research, 2007)
